# Values of other authors in article PMC2810191 (Biochemistry, 2009).
# Test system: Bacillus anthracis
compound,measurement,value
"CCc1nc(N)nc(N)c1C#CCc1cc(OC)ccc1OC [UCP120B, 2,4-diamino-5-(3-(2,5-dimethoxyphenyl)prop-1-ynyl)-6-ethyl-pyrimidine]",inhibition of growth of the bacteria,modestly inhibits the growth of the bacteria
